≈ marks a conversion by molar mass, not a printed value. Calls of active or inactive are those of the source. The calls are words filed in the database; no cut-off is given here.
Assays:
[1] = Inhibition of fluorescent probe FITC tagged PDR1-KIX domain (unknown origin) protein-protein interaction assessed as inhibition constant incubated for 2 hrs by fluorescence polarization binding assay
Nakaseomyces glabratus [2] = assay: Antifungal activity against FLC-resistant Candida glabrata 0161 infected in cyclophosphamide immunosuppressed ICR mouse model assessed as inhibition of fungal growth in kidney at 40 mg/kg,ip administrated for 5 days; format: functional, organism-based; details: time 5.0 day
[3] = Binding affinity to Candida glabrata KIX domain assessed as dissociation constant; set-up: species or system Nakaseomyces glabratus
Nakaseomyces glabratus [4] = assay: Antifungal activity against fluconazole-resistant Candida glabrata 0161 assessed as fungal growth inhibition incubated for 48 hrs by microplate reader assay; format: functional
Nakaseomyces glabratus [5] = assay: Antifungal activity against fluconazole-resistant Candida glabrata 0161 assessed as fractional inhibitory concentration incubated for 48 hrs in presence of fluconazole by microplate reader assay; format: functional
Nakaseomyces glabratus [6] = assay: Antifungal activity against fluconazole-resistant Candida glabrata 0161 assessed as fluconazole fractional inhibitory concentration incubated for 48 hrs in presence of fluconazole by microplate reader assay; format: functional
Nakaseomyces glabratus [7] = assay: Synergistic antifungal activity against fluconazole-resistant Candida glabrata 0161 assessed as fractional inhibitory concentration index incubated for 48 hrs in presence of fluconazole by checkerboard microdilution method; format: functional
[8] = Aqueous solubility of compound; format: physicochemical
Nakaseomyces glabratus [9] = assay: Synergistic antifungal activity against fluconazole-resistant Candida glabrata 0161 assessed as fractional inhibitory concentration index incubated for 48 hrs in presence of A6 compound by checkerboard microdilution method; format: functional
Nakaseomyces glabratus [10] = assay: Synergistic antifungal activity against fluconazole-resistant Candida glabrata 0161 assessed as fractional inhibitory concentration index incubated for 48 hrs in presence of A11 compound by checkerboard microdilution method; format: functional
Nakaseomyces glabratus [11] = assay: Synergistic antifungal activity against fluconazole-resistant Candida glabrata 0161 assessed as fractional inhibitory concentration index incubated for 48 hrs in presence of A1 compound by checkerboard microdilution method; format: functional
Nakaseomyces glabratus [12] = assay: Synergistic antifungal activity against fluconazole-resistant Candida glabrata 0161 assessed as fractional inhibitory concentration index incubated for 48 hrs in presence of A2 compound by checkerboard microdilution method; format: functional
Nakaseomyces glabratus [13] = assay: Synergistic antifungal activity against fluconazole-resistant Candida glabrata 0161 assessed as fractional inhibitory concentration index incubated for 48 hrs in presence of A3 compound by checkerboard microdilution method; format: functional
Nakaseomyces glabratus [14] = assay: Synergistic antifungal activity against fluconazole-resistant Candida glabrata 0161 assessed as fractional inhibitory concentration index incubated for 48 hrs in presence of A4 compound by checkerboard microdilution method; format: functional
Nakaseomyces glabratus [15] = assay: Synergistic antifungal activity against fluconazole-resistant Candida glabrata 0161 assessed as fractional inhibitory concentration index incubated for 48 hrs in presence of A5 compound by checkerboard microdilution method; format: functional
Nakaseomyces glabratus [16] = assay: Synergistic antifungal activity against fluconazole-resistant Candida glabrata 0161 assessed as fractional inhibitory concentration index incubated for 48 hrs in presence of A7 compound by checkerboard microdilution method; format: functional
Nakaseomyces glabratus [17] = assay: Synergistic antifungal activity against fluconazole-resistant Candida glabrata 0161 assessed as fractional inhibitory concentration index incubated for 48 hrs in presence of A8 compound by checkerboard microdilution method; format: functional
Nakaseomyces glabratus [18] = assay: Synergistic antifungal activity against fluconazole-resistant Candida glabrata 0161 assessed as fractional inhibitory concentration index incubated for 48 hrs in presence of A9 compound by checkerboard microdilution method; format: functional
Nakaseomyces glabratus [19] = assay: Synergistic antifungal activity against fluconazole-resistant Candida glabrata 0161 assessed as fractional inhibitory concentration index incubated for 48 hrs in presence of A10 compound by checkerboard microdilution method; format: functional
Nakaseomyces glabratus [20] = assay: Synergistic antifungal activity against fluconazole-resistant Candida glabrata 0161 assessed as fractional inhibitory concentration index incubated for 48 hrs in presence of A12 compound by checkerboard microdilution method; format: functional
Nakaseomyces glabratus [21] = assay: Synergistic antifungal activity against fluconazole-resistant Candida glabrata 0161 assessed as fractional inhibitory concentration index incubated for 48 hrs in presence of A13 compound by checkerboard microdilution method; format: functional
Nakaseomyces glabratus [22] = assay: Synergistic antifungal activity against fluconazole-resistant Candida glabrata 0161 assessed as fractional inhibitory concentration index incubated for 48 hrs in presence of A14 compound by checkerboard microdilution method; format: functional
Nakaseomyces glabratus [23] = assay: Synergistic antifungal activity against fluconazole-resistant Candida glabrata 0161 assessed as fractional inhibitory concentration index incubated for 48 hrs in presence of B1 compound by checkerboard microdilution method; format: functional
Nakaseomyces glabratus [24] = assay: Synergistic antifungal activity against fluconazole-resistant Candida glabrata 0161 assessed as fractional inhibitory concentration index incubated for 48 hrs in presence of B2 compound by checkerboard microdilution method; format: functional
Nakaseomyces glabratus [25] = assay: Synergistic antifungal activity against fluconazole-resistant Candida glabrata 0161 assessed as fractional inhibitory concentration index incubated for 48 hrs in presence of B3 compound by checkerboard microdilution method; format: functional
Nakaseomyces glabratus [26] = assay: Synergistic antifungal activity against fluconazole-resistant Candida glabrata 0161 assessed as fractional inhibitory concentration index incubated for 48 hrs in presence of B4 compound by checkerboard microdilution method; format: functional
Nakaseomyces glabratus [27] = assay: Synergistic antifungal activity against fluconazole-resistant Candida glabrata 0161 assessed as fractional inhibitory concentration index incubated for 48 hrs in presence of B5 compound by checkerboard microdilution method; format: functional
Nakaseomyces glabratus [28] = assay: Synergistic antifungal activity against fluconazole-resistant Candida glabrata 0161 assessed as fractional inhibitory concentration index incubated for 48 hrs in presence of B6 compound by checkerboard microdilution method; format: functional
Nakaseomyces glabratus [29] = assay: Synergistic antifungal activity against fluconazole-resistant Candida glabrata 0161 assessed as fractional inhibitory concentration index incubated for 48 hrs in presence of B7 compound by checkerboard microdilution method; format: functional
Nakaseomyces glabratus [30] = assay: Synergistic antifungal activity against fluconazole-resistant Candida glabrata 0161 assessed as fractional inhibitory concentration index incubated for 48 hrs in presence of B8 compound by checkerboard microdilution method; format: functional
Nakaseomyces glabratus [31] = assay: Antifungal activity against fluconazole-resistant Candida glabrata 0161 assessed as fungal growth inhibition at 16 ug/ml incubated for 48 hrs by time-growth curve assay; format: functional, organism-based; details: dose 16.0 µg/ml
Nakaseomyces glabratus [32] = assay: Antifungal activity against fluconazole-resistant Candida glabrata 0161 assessed as inhibition of fungal biofilm formation at 32 ug/ml incubated for 24 hrs by XXT reduction menadione assay; format: functional
Nakaseomyces glabratus [33] = assay: Synergistic antifungal activity against fluconazole-resistant Candida glabrata 0161 assessed as inhibition of fungal biofilm formation at 4 ug/ml incubated for 24 hrs in presence of compound B8 by XXT reduction menadione assay; format: functional
Nakaseomyces glabratus [34] = assay: Antifungal activity against fluconazole-resistant Candida glabrata 0161 assessed as inhibition of fungal mature biofilm formation at 0.25 to 64 ug/ml incubated for 24 hrs by XXT reduction menadione assay; format: functional, organism-based; details: dose 0.25-64 µg/ml
Nakaseomyces glabratus [35] = assay: Antifungal activity against fluconazole-resistant Candida glabrata 0161 assessed as downregulation of PDR1 gene expression at 32 ug/ml by RT-PCR analysis; format: functional, organism-based; details: dose 32.0 µg/ml
Nakaseomyces glabratus [36] = assay: Antifungal activity against fluconazole-resistant Candida glabrata 0161 assessed as downregulation of CDR1 gene expression at 32 ug/ml by RT-PCR analysis; format: functional, organism-based; details: dose 32.0 µg/ml
Nakaseomyces glabratus [37] = assay: Antifungal activity against fluconazole-resistant Candida glabrata 0161 assessed as downregulation of CDR2 gene expression at 32 ug/ml by RT-PCR analysis; format: functional, organism-based; details: dose 32.0 µg/ml
Nakaseomyces glabratus [38] = assay: Antifungal activity against fluconazole-resistant Candida glabrata 0161 assessed as downregulation of ERG11 gene expression at 32 ug/ml by RT-PCR analysis; format: functional, organism-based; details: dose 32.0 µg/ml
Nakaseomyces glabratus [39] = assay: Antifungal activity against FLC-resistant Candida glabrata 0161 infected in cyclophosphamide immunosuppressed ICR mouse model assessed as inhibition of fungal growth in kidney at 5 mg/kg,ip administrated for 5 days; format: functional, organism-based; details: time 5.0 day
Nakaseomyces glabratus [40] = assay: Antifungal activity against FLC-resistant Candida glabrata 0161 infected in cyclophosphamide immunosuppressed ICR mouse model assessed as pathological change in kidney at 5 mg/kg,ip administrated for 5 days by Hematoxylin and eosin staining based analysis; format: functional, organism-based; details: time 5.0 day
Nakaseomyces glabratus [41] = assay: Antifungal activity against fluconazole-resistant Candida glabrata 9256 assessed as fungal growth inhibition incubated for 48 hrs by microplate reader assay; format: functional
Nakaseomyces glabratus [42] = assay: Antifungal activity against fluconazole-resistant Candida glabrata 8535 assessed as fungal growth inhibition incubated for 48 hrs by microplate reader assay; format: functional
Candida albicans = assay: Antifungal activity against Candida albicans assessed as fungal growth inhibition incubated for 48 hrs by microplate reader assay; format: functional
Candida tropicalis = assay: Antifungal activity against Candida tropicalis 10186 assessed as fungal growth inhibition incubated for 48 hrs by microplate reader assay; format: functional
Candida parapsilosis = assay: Antifungal activity against Candida parapsilosis 20090 assessed as fungal growth inhibition incubated for 48 hrs by microplate reader assay; format: functional; details: Lodderomyces parapsilosis
[Candida] auris [43] = Antifungal activity against Candida auris 0030 assessed as fungal growth inhibition incubated for 48 hrs by microplate reader assay; format: functional; details: Candidozyma auris
[Candida] auris [44] = Antifungal activity against Candida auris 15448 assessed as fungal growth inhibition incubated for 48 hrs by microplate reader assay; format: functional; details: Candidozyma auris
Aspergillus fumigatus = assay: Antifungal activity against Aspergillus fumigatus 7544 assessed as fungal growth inhibition incubated for 48 hrs by microplate reader assay; format: functional
Nannizzia gypsea = assay: Antifungal activity against Microsporum gypseum assessed as fungal growth inhibition incubated for 48 hrs by microplate reader assay; format: functional
Trichophyton rubrum = assay: Antifungal activity against Trichophyton rubrum assessed as fungal growth inhibition incubated for 48 hrs by microplate reader assay; format: functional
Cryptococcus neoformans = assay: Antifungal activity against Cryptococcus neoformans H99 assessed as fungal growth inhibition incubated for 48 hrs by microplate reader assay; format: functional

Compound: N#CCC(=O)NNC(=S)Nc1ccc(Cl)c(Cl)c1
- Ki [1]: 29.2 µM
- Activity (Nakaseomyces glabratus [2]): Active
- Kd [3]: 2.8 µM
- MIC (Nakaseomyces glabratus [4]): 32 µg/mL (≈ 106 µM)
- FIC (Nakaseomyces glabratus [5]): 8 µg/mL
- fluconazole MIC in combination (Nakaseomyces glabratus [6]): 2 µg/mL
- fractional inhibitory concentration index (FICI) (Nakaseomyces glabratus [7]): 0.31
- solubility [8]: 9.12 µg/mL (≈ 30.1 µM)

Compound: OC(Cn1cncn1)(Cn1cncn1)c1ccc(F)cc1F [FLUCONAZOLE]
- Activity (Nakaseomyces glabratus [2]): Active
- MIC (Nakaseomyces glabratus [4]): 32 µg/mL (≈ 104 µM)
- fractional inhibitory concentration index (FICI) (Nakaseomyces glabratus [9]): 0.25
- fractional inhibitory concentration index (FICI) (Nakaseomyces glabratus [10]): 0.52
- fractional inhibitory concentration index (FICI) (Nakaseomyces glabratus [11]): 0.31
- fractional inhibitory concentration index (FICI) (Nakaseomyces glabratus [12]): 0.56
- fractional inhibitory concentration index (FICI) (Nakaseomyces glabratus [13]): 0.56
- fractional inhibitory concentration index (FICI) (Nakaseomyces glabratus [14]): 0.53
- fractional inhibitory concentration index (FICI) (Nakaseomyces glabratus [15]): 0.56
- fractional inhibitory concentration index (FICI) (Nakaseomyces glabratus [16]): 0.38
- fractional inhibitory concentration index (FICI) (Nakaseomyces glabratus [17]): 0.53
- fractional inhibitory concentration index (FICI) (Nakaseomyces glabratus [18]): 0.53
- fractional inhibitory concentration index (FICI) (Nakaseomyces glabratus [19]): 0.53
- fractional inhibitory concentration index (FICI) (Nakaseomyces glabratus [20]): 0.53
- fractional inhibitory concentration index (FICI) (Nakaseomyces glabratus [21]): 0.53
- fractional inhibitory concentration index (FICI) (Nakaseomyces glabratus [22]): 0.56
- fractional inhibitory concentration index (FICI) (Nakaseomyces glabratus [23]): 0.53
- fractional inhibitory concentration index (FICI) (Nakaseomyces glabratus [24]): 0.29
- fractional inhibitory concentration index (FICI) (Nakaseomyces glabratus [25]): 0.31
- fractional inhibitory concentration index (FICI) (Nakaseomyces glabratus [26]): 0.31
- fractional inhibitory concentration index (FICI) (Nakaseomyces glabratus [27]): 0.76
- fractional inhibitory concentration index (FICI) (Nakaseomyces glabratus [28]): 0.53
- fractional inhibitory concentration index (FICI) (Nakaseomyces glabratus [29]): 0.52
- fractional inhibitory concentration index (FICI) (Nakaseomyces glabratus [30]): 0.28
- Activity (Nakaseomyces glabratus [31]): inactive
- inhibition at 32 µg/mL (Nakaseomyces glabratus [32]): 39%
- inhibition at 4 µg/mL (Nakaseomyces glabratus [33]): 33%
- inhibition (Nakaseomyces glabratus [34]): Active
- Activity (Nakaseomyces glabratus [35]): inactive
- Activity (Nakaseomyces glabratus [36]): inactive
- Activity (Nakaseomyces glabratus [37]): inactive
- Activity (Nakaseomyces glabratus [38]): inactive
- Activity (Nakaseomyces glabratus [39]): inactive
- Activity (Nakaseomyces glabratus [40]): Active

Compound: Nc1cc(=O)n(C(=S)Nc2ccc(Cl)cc2)[nH]1
- Ki [1]: 54.5 µM
- MIC (Nakaseomyces glabratus [4]): 0.25 µg/mL (≈ 0.93 µM)
- FIC (Nakaseomyces glabratus [5]): 0.063 µg/mL
- fluconazole MIC in combination (Nakaseomyces glabratus [6]): 2 µg/mL
- fractional inhibitory concentration index (FICI) (Nakaseomyces glabratus [7]): 0.31
- MIC (Nakaseomyces glabratus [41]): 0.25 µg/mL (≈ 0.93 µM)
- MIC (Nakaseomyces glabratus [42]): 0.25 µg/mL (≈ 0.93 µM)
- MIC (Candida albicans): 4 µg/mL (≈ 14.9 µM)
- MIC (Candida tropicalis): 4 µg/mL (≈ 14.9 µM)
- MIC (Candida parapsilosis): 4 µg/mL (≈ 14.9 µM)
- MIC ([Candida] auris [43]): 2 µg/mL (≈ 7.44 µM)
- MIC ([Candida] auris [44]): 2 µg/mL (≈ 7.44 µM)
- MIC (Aspergillus fumigatus): 16 µg/mL (≈ 59.5 µM)
- MIC (Nannizzia gypsea): 1 µg/mL (≈ 3.72 µM)
- MIC (Trichophyton rubrum): 1 µg/mL (≈ 3.72 µM)
- MIC (Cryptococcus neoformans): 0.063 µg/mL (≈ 0.234 µM)

Source: ChEMBL document CHEMBL5321270, “Discovery of Pyrazolone Carbothioamide Derivatives as Inhibitors of the Pdr1-KIX Interaction for Combinational Treatment of Azole-Resistant Candidiasis” (J Med Chem, 2023)
